Data from patent publication US6562853B2, “2,5-dioxo-3-(2-propynyl)imidazolidin-1-ylmethyl 2,2-dimethyl-3-(alenyl) cyclopropane carboxylate compounds and pesticidal methods and compositions utilizing the same” (Sumitomo Chemical Company, Limited, priority 2001, dated 2003).

Tests used:
[1] = system: adult female common mosquitoes; test: Knockdown of common mosquitoes by oily formulation sprayed into 70 cm cubic chamber (Test Example 3); type: in vivo, common mosquito (Culex pipiens pallens); settings: 0.00625% oily formulation, 0.7 ml sprayed into 70 cm cubic chamber; 10 adult female common mosquitoes; counted over 10 minutes
Excerpt: Three (3) 0.00625% oily formulations were produced with the following pesticidal compounds: […]
In the compound encompassed by formula (A), the weight ratio of trans isomers thereof to the cis isomers thereof is 8:2. The 0.00625% oily formulations were produced by dissolving, respectively, 0.00625 parts of the above pesticidal compounds in 10 parts of dichloromethane and by mixing each of the resulting mixture with 89.99375 parts of deodorized kerosene.
Ten (10) adult female common mosquitoes were released in each of the cubic chambers having a side length of 70 cm. Seven-tenths milliliters (0.7 ml) of the 0.00625% oily formulations were then sprayed, respectively, into each of the chambers from the side windows of the chambers, utilizing spray guns set to a pressure of 8.8×10^4 Pa. The numbers of knockdowned common mosquitoes were counted periodically over 10 minutes. The times utilized to knockdown half of the tested common mosquitoes (KT50) were determined from the number of knockdowned common mosquitoes.

Adult houseflies [2] = test: Knockdown of houseflies by oily formulation sprayed into 70 cm cubic chamber (Test Example 1); type: in vivo, housefly (Musca domestica); settings: 0.025% oily formulation, 0.7 ml sprayed into 70 cm cubic chamber; 5 male and 5 female adult houseflies; counted over 10 minutes
Method: A 0.025% oily formulation was produced by dissolving 0.025 parts of the present invention compound 1 in 10 parts of dichloromethane and by mixing the resulting mixture with 89.975 parts of deodorized kerosene.
Adult houseflies (5 of each male and female) were released in a cubic chamber having a side length of 70 cm. Seven-tenths milliliters (0.7 ml) of the 0.025% oily formulation was then sprayed into the chamber from a side window of the chamber, utilizing a spray gun set to a pressure of 8.8×10^4 Pa. The number of knockdowned houseflies was counted periodically over 10 minutes. The time utilized to knockdown half of the tested houseflies (KT50) was determined from the number of knockdowned houseflies. The KT50 was 2.3 minutes.

Adult houseflies [3] = test: Knockdown rate of houseflies in plastic cup after direct spray of oily formulation (Test Example 2); type: in vivo, housefly (Musca domestica); settings: 0.1% oily formulation (table), 0.5 ml sprayed from about 30 cm above cup; 10 adult houseflies; counted 10 seconds thereafter
Method: A 0.1% oily formulation was produced by dissolving 0.1 part of the present invention compound 1 in 10 parts of dichloromethane and by mixing the resulting mixture with 89.9 parts of deodorized kerosene.
Ten (10) adult houseflies (5 of each male and female) were placed in a 650 ml plastic cup. The opening of the plastic cup was covered with a nylon mesh to confine the houseflies to the plastic cup. The plastic cup was placed on top of a metal screen placed in a metal chamber having the dimensions 46 cm×46 cm×70 cm. Five-tenths milliliters (0.5 ml) of the […] oily formulation was then sprayed from about 30 cm above the top area of the plastic cup, utilizing a spray gun set to a pressure of 8.8×10^4 Pa. The number of knockdowned houseflies were counted 10 seconds thereafter. The knockdown rate was determined from the number of knockdowned houseflies achieved. The knockdown rate was 95%.

Question: How did the “KT50 (time utilized to knockdown half of the tested common mosquitoes)” value [1] turn out when `C#CCN1CC(=O)N(COC(=O)C2C(C=C(C)C)C2(C)C)C1=O` (single isomer, unassigned) [Compound c, reference compound] was run?
Answer: Its value is 2.9 min.

Question: `C#CCN1CC(=O)N(COC(=O)[C@@H]2[C@@H](/C=C\C)C2(C)C)C1=O` [Present invention compound 1, 2,5-dioxo-3-(2-propynyl)imidazolidin-1-ylmethyl (1R)-trans-2,2-dimethyl-3-((Z)1-propenyl)cyclopropanecarboxylate] was tested. Which “KT50 (time utilized to knockdown half of the tested houseflies)” value (Adult houseflies [2]) did it give?
Answer: Its value is 2.3 min.

Question: And the Knockdown rate (Adult houseflies [3])?
Answer: The Knockdown rate was 95%.

Question: And the “KT50 (time utilized to knockdown half of the tested common mosquitoes)” value [1]?
Answer: Its value is 0.99 min.

Question: Which “KT50 (time utilized to knockdown half of the tested common mosquitoes)” value [1] does the source give for `C#CCN1CC(=O)N(COC(=O)[C@@H]2[C@H](/C=C\C)C2(C)C)C1=O` [Present invention compound 3, 2,5-dioxo-3-(2-propynyl)imidazolidin-1-ylmethyl (1R)-cis-2,2-dimethyl-3-((Z)1-propenyl)cyclopropanecarboxylate] here?
Answer: Its value is 1.4 min.
